# Laboratory results from patent US8818734B1, “Peptide ligands for sperm DNA fragmentation assay” (priority 2011, dated 2014).
# Tests used:
# Assay type in all cases: cell-based
# human spermatozoa [1] = assay: Induction of single-strand DNA damage with H2O2: DW1 staining of ethanol-fixed slides, SCDt, alkaline comet assay; settings: 0.03 and 0.3% H2O2, 30 min, p<0.05
# Experimental: Five human sperm samples were washed in PBS (220 g, 10 min), diluted to a concentration of 10×10^6 spermatozoa/ml in PBS (Fischer Scientific International, Pittsburgh, Pa., USA) and divided into three aliquots of 200 μl each, allowing a control group to be compared with the treated cells. To induce single-strand DNA damage (Yamamoto, 1969), spermatozoa were incubated with 0.03 and 0.3% H2O2 (Sigma, St Louis, Mo., USA) for 30 min at room temperature.
# (§1) Control, H2O2 (0.03% and 0.3%) and Bleomycin (2 and 4 mg/ml)-treated sperm samples were used for this purpose. Ten fields per sample were captured as described above in the Fluorescence microscopy evaluation and image capture section using a fixed exposure time. A total of 300 sperm cells per slide were analysed.
# One way-ANOVA and Dunnett's Test for multiple comparisons with a single control were used to detect significant differences in the frequencies of SDF calculated by SCDt and alkaline comet assay between the control and each one of the treatments, 0.03% and 0.3% H2O2.
# human spermatozoa [2] = assay: Induction of double-strand DNA damage with Bleomycin: DW1 staining of ethanol-fixed slides, SCDt, neutral comet assay; settings: 2 and 4 mg/ml Bleomycin, 3 h, 37° C., p<0.05
# Experimental: Five human sperm samples were washed in PBS (220 g, 10 min), diluted to a concentration of 10×10^6 spermatozoa/ml in PBS (Fischer Scientific International, Pittsburgh, Pa., USA) and divided into three aliquots of 200 μl each, allowing a control group to be compared with the treated cells. To induce double-strand DNA damage, spermatozoa were incubated with 2 and 4 mg/ml of Bleomycin (Sigma, St Louis, Mo., USA) for 3 h at 37° C.
# as §1
# A Mann-Whitney U test was used to detect significant differences in the frequencies of SDF calculated by SCDt and neutral comet assay between the control and each one of the treatments, 2 mg/ml and 4 mg/ml of bleomycin.
# spermatozoa = assay: Access of TAT-modified DW1 to the cell interior; settings: DW1 modified to include TAT peptide YGRKKRRQRRRG
# From the text: However, it is possible that different TAT configurations or the use of an alternative protein transduction domain might allow penetration into the cell interior. […] It is still possible that the peptide could be used to choose spermatozoa for fertilization using ICSI following removal of membranes using detergent. Previous studies have shown that sperm treated in this way remain fertilizations competent (Kasai et al., 1999). […] Electroporation is known not to inhibit sperm viability and ICSI procedures.
compound,measurement,setting,value
"OO [H2O2, Hydrogen Peroxide]",frequency of sperm cells with fragmented DNA by SCDt (SCDt-SDF) and alkaline comet assay (ssSDF),human spermatozoa [1],significant increase
Bleomycin,frequency of sperm cells with fragmented DNA by SCDt (SCDt-SDF) and neutral comet assay (dsSDF),human spermatozoa [2],significantly increased
"DW1 (SEQ ID NO:1) to include a TAT peptide: DW1 modified to include a TAT peptide (YGRKKRRQRRRG), a transduction sequence (GSRAHSSHLKSKKGQSTSRHKKYGRKKRRQRRRG; listed as Homo sapiens)",access to the cell interior,spermatozoa,failed to improve access to the cell interior
